Read-outs that look alike come from different tables or passages of the source.
Key:
IMP-1 = IMP-1 (Serratia marcescens, UniProt P52699); test: biochemical; format: biochemical; settings: fluorescence assay, CCF2-FA substrate, 2 pM enzyme, 2 hours at 25° C.; read-out: IMP-1 IC50
Procedure, shortened: (§1)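 Fluorescence assay, CCF2-FA substrate (cephalosporin core linking 7-hydroxycoumarin to fluorescein); inhibitor + MBL + substrate, 2 h, 25° C. IC50 by 4-parameter fit, semi-log plot.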

NDM-1 = NDM-1 (Klebsiella pneumoniae, UniProt C7C422); test: biochemical; format: biochemical; settings: fluorescence assay, CCF2-FA substrate, 1 pM enzyme, 2 hours at 25° C.; read-out: NDM-1 IC50
Procedure, shortened: as §1

VIM-1 = VIM-1 (Pseudomonas aeruginosa (strain ATCC 15692 / DSM 22644 / CIP 104116 / JCM 14847 / LMG 12228 / 1C / PRS 101 / PAO1), UniProt A0A0F7KYQ8); test: biochemical; settings: CCF2-FA substrate, 30 pM enzyme, 2 hours at 25° C.
Procedure, shortened: as §1

[1] = system: Escherichia coli expressing NDM-1 (CLB30005, CLB30016); format: cell-based; settings: NDM-1 strain, with imipenem 1 μg/ml, 95% inhibition of growth
Procedure, shortened: (§2)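 Growth by absorbance after 22–24 h at 35°C defined the read-out, with imipenem fixed at 1 μg/ml alongside compound. Inocula came from overnight blood-agar colonies at 35°C, resuspended in saline and diluted 1:100 in 1.1×CAMHB.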

[2] = system: Klebsiella pneumoniae expressing VIM-1 (IHMA599644); format: cell-based; settings: VIM-1 strain IHMA599644, with imipenem 1 μg/ml, 95% inhibition of growth
Procedure, shortened: as §2

[3] = system: Serratia marcescens expressing IMP-1 (CL5741); format: cell-based; settings: IMP-1 strain CL5741, with imipenem 1 μg/ml, 95% inhibition of growth
Procedure, shortened: as §2

[4] = system: Pseudomonas aeruginosa efflux+ (MB9798), IMP-1; format: cell-based; settings: concentration restoring susceptibility to imipenem at 2 μg/mL in the presence of a class A, C, D serine β-lactamase inhibitor closely related to relebactam
Procedure, shortened: (§3)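 Microbroth MIC tests in PAO1-background strains with fixed imipenem and/or ceftazidime, usually at the CLSI breakpoint, plus fixed class A/C β-lactamase inhibitor against AmpC. MBL inhibitor titrated; concentration restoring susceptibility recorded and compared as fold difference between efflux+ MB9798 and efflux− MB9799.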

[5] = system: Pseudomonas aeruginosa efflux− (MB9799), IMP-1; format: cell-based; settings: concentration restoring susceptibility to imipenem at 2 μg/mL in the presence of a class A, C, D serine β-lactamase inhibitor closely related to relebactam
Procedure, shortened: as §3

[6] = system: Pseudomonas aeruginosa MB9798 vs MB9799; settings: ratio MITC95 PA_9798/MITC95 PA_9799
Procedure, shortened: as §3

[7] = fluorescence assay, read-out: VIM-1 IC50

Sequence of NDM-1 (C7C422 whole entry, looked up, species assumed): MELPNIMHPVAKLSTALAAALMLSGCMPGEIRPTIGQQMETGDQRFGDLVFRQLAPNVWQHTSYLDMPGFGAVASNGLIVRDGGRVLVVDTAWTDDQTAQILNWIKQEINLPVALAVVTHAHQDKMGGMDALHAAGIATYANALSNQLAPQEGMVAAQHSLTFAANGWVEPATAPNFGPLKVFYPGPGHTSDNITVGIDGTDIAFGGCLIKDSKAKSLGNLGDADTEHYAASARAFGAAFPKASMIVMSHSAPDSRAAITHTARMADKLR
Sequence of IMP-1 (P52699 whole entry, looked up, species assumed): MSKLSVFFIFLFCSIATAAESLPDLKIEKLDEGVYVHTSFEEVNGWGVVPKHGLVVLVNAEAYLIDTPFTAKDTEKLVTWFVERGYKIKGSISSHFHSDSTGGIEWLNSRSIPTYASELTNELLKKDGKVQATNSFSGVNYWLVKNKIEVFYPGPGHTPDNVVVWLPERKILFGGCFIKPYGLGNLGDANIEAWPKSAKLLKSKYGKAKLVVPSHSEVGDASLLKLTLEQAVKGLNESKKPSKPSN

| Compound | IC50 (IMP-1) [nM] | IC50 (NDM-1) [nM] | IC50 (VIM-1; VIM-1 IC50, fluorescence assay) [nM] | Escherichia coli MITC95 [1] [µM] | Klebsiella pneumoniae MITC95 [2] [µM] | Serratia marcescens MITC95 [3] [µM] | P. aeruginosa expressing IMP-1, efflux + (MB9798) MITC95 [4] [µM] | P. aeruginosa expressing IMP-1, efflux − (MB9799) MITC95 [5] [µM] | Efflux ratio [6] | IC50 (VIM-1; [7]) [nM] |
| --- | --- | --- | --- | --- | --- | --- | --- | --- | --- | --- |
| CC1(NS(=O)(=O)c2ccc(-c3cccc4[nH]c(N)nc34)c(-c3nn[nH]n3)c2S(N)(=O)=O)CNC1 [Example 257] | 0.642 | 0.033 | 0.157 | 0.3906 | 0.7813 | 0.7813 | 0.7813 | 0.7813 | 1.00 | – |
| NCCCCNS(=O)(=O)c1ccc(-c2cccc3[nH]c(N)nc23)c(-c2nn[nH]n2)c1S(N)(=O)=O [Example 258, 4-(2-amino-1H-benzo[d]imidazol-7-yl)-N1-(4-aminobutyl)-3-(2H-tetrazol-5-yl)benzene-1,2-disulfonamide] | 0.691 | 0.0535 | – | 0.1953 | 1.563 | 0.7813 | 0.7813 | 0.7813 | 1.00 | 0.156 |
| Nc1nc2c(-c3ccc(S(=O)(=O)NC[C@H]4CCNC4)c(S(N)(=O)=O)c3-c3nn[nH]n3)cccc2[nH]1 [Example 259, (S)-4-(2-amino-1H-benzo[d]imidazol-4-yl)-N1-(pyrrolidin-3-ylmethyl)-3-(2H-tetrazol-5-yl)benzene-1,2-disulfonamide] | 0.836 | 0.0555 | 0.229 | 0.3906 | 1.563 | 0.7813 | 0.7813 | 0.7813 | 1.00 | – |
| Nc1nc2c(-c3ccc(S(=O)(=O)NC4CCNCC4)c(S(N)(=O)=O)c3-c3nn[nH]n3)cccc2[nH]1 [Example 260, 4-(2-amino-1H-benzo[d]imidazol-4-yl)-N1-(piperidin-4-yl)-3-(1H-tetrazol-5-yl)benzene-1,2-disulfonamide] | 0.648 | 0.0431 | – | 0.7813 | 1.563 | 1.563 | 0.7813 | 0.7813 | 1.00 | 0.151 |
| Nc1nc2c(-c3ccc(S(=O)(=O)NC[C@H]4CCCN4)c(S(N)(=O)=O)c3-c3nn[nH]n3)cccc2[nH]1 [Example 261, (R)-4-(2-amino-1H-benzo[d]imidazol-4-yl)-N1-(pyrrolidin-2-ylmethyl)-3-(2H-tetrazol-5-yl)benzene-1,2-disulfonamide] | 0.648 | 0.0691 | 0.224 | 0.1953 | 0.7813 | 0.7813 | 0.7813 | 0.7813 | 1.00 | – |
| Nc1nc2c(-c3ccc(S(=O)(=O)NC[C@@H]4CCCN4)c(S(N)(=O)=O)c3-c3nn[nH]n3)cccc2[nH]1 [Example 262, (S)-4-(2-amino-1H-benzo[d]imidazol-4-yl)-N1-(pyrrolidin-2-ylmethyl)-3-(2H-tetrazol-5-yl)benzene-1,2-disulfonamide] | 0.925 | 0.0768 | 0.295 | 0.1953 | 0.7813 | 0.7813 | 0.7813 | 0.7813 | 1.00 | – |
